Test results taken from US8445502B2, “Pharmaceutical formulations comprising salts of a protein kinase inhibitor and methods of using same” (Astex Pharmaceuticals, Inc., priority 2007, dated 2013).
Where two headings read alike, the source gives them in different places.

Assays:
in vivo [1] = conditions: both, beagle, dog, iv
Experimental: The purpose of these studies was to determine the highest level of MP470 free base that can be administered intravenously to dogs without causing extreme illness, maximum tolerated dose (MTD). In both studies a single male and a single female beagle dog were injected intravenously with MP470.
In the second study we tested doses of 0.625, 1.25, 2.5, 5, 10, and 20 mg/kg MP470 in 1 male and 1 female beagle dog with 48-96 hrs between dose escalations, with the exception of 11 days between dose 5 and 6. Additionally, in this study approximately 5-10 second electrocardiograph (ECG) tracings in a lead II configuration were obtained from each dog prior to each dose, approximately 20 minutes after the start of dosing, and immediately after completion of dosing.

[2] = tested on: HT-29 colorectal cancer cells; assay type: in vivo
Experimental: MP470 and MP470 HCl were tested against different tumor types in athymic nude mice as summarized below (Table 8). Various formulations and routes were evaluated. HT-29 colorectal cancer cells and SB-CL2 melanoma cells were implanted subcutaneously, while A549 lung cancer cells, MiaPaCa-2 pancreatic cancer cells, TT medullary thyroid cancer cells, and OVCAR-3 ovarian cancer cells were implanted […] in the hind flank of mice. All animals were allowed to develop medium-sized (80-125 mg) tumors, before initiation of dosing. Tumor volume and mouse bodyweight were followed over the course of the study.
HT-29 Colorectal Model—Eighteen athymic nude mice were injected subcutaneously with HT-29 colorectal cancer cells. After tumor formation, animals received either 10 or 20 mg/kg MP470 by intraperitoneal (IP) injection using a qd5×2 wk schedule. On Day 5 of treatment, tumor growth rates in vehicle control animals were 19.5 mm3/d, while MP470-treated animals had tumor growth rates of 1.4 mm3/d (10 mg/kg) and −5.0 mm3/d (20 mg/kg). Tumor growth continued to decline throughout the 14 days of study. On Day 14, the tumor growth rates were 16.4 mm3/d (vehicle) compared to 4.3 mm3/d (10 mg/kg) and 5.5 mm3/d (20 mg/kg) in treated animals.

[3] = pKa by mixed-solvent (methanol-water) method; assay type: physicochemical
Experimental: The apparent pKa in aqueous solution was extrapolated from the determined pKa values (the apparent ionization constants in methanol-water solvent) plotted versus the percent methanol used. The apparent pKa of MP470 was determined to be 6.7.

[4] = Solubility of MP470.HCl in common solvents at room temperature; assay type: physicochemical
in vivo [5] = conditions: rat; for severely toxic dose / severely toxic dose (STD): 28 days
Experimental: In a chronic tolerability study of MP470 hydrochloride salt in the rat, the animals were dosed 20, 60, 100 or 200 mg/kg/d (males) and 6, 20, 60 and 100 mg/kg/d (females) daily for 28 days. One female rat died after 5 doses at 100 mg/kg/d, however the it was not clear if this was related to the drug. Two additional female rats died on days 28 and 42 (control and 60 mg/kg/d) possibly due the trauma induced by repeated blood collection. There were no clinical signs of severe toxicity prior to deaths. The clinical abnormalities included hunched posture, soft feces and sporadic occurrence of hair loss. […] Although all animals gained weight during the study, the relative gain was lower in the males at 200 mg/kg/d (70% control) and females at 60 and 100 mg/kg/d (83 and 57% control). […] There were signs of recovery after cessation of dosing. There were no drug related adverse ophthalmologic effects or change hematology parameters. Significant clinical chemistry changes included decreases in glucose and triglyceride levels in males at 200 mg/kg/d, and alterations in cholesterol, troponin-1 and alkaline phosphatase in females (60 and 100 mg/kg/d). There was no correlative histopathology for these alterations. There were no drug related adverse changes in urinalysis or organ weight changes. There were sporadic alterations in organ weights but without corresponding microscopic pathology. […] There was adequate systemic exposure in both sexes; however the exposure was not dose-proportional (lower at higher doses). At all doses exposure to females was higher than that in males and exposure on day 27 was higher than that on day 1. There was substantial variability in the half-lives and ranged from 2 to 8 hours. The no observed effect level (NOEL) was 60 mg/kg/d (360 mg/m2/d) for males and 20 mg/kg/d (120 mg/m2/d) for females. In the absence of clear target organ toxicity or signs of severe toxicity a severely toxic dose (STD) could not be calculated. STD is likely to be higher than 100 mg/kg/d for females and 200 mg/kg/d for the males.

[6] = rat, in vivo
Experimental: Twenty-four rats were placed into four groups each consisting of three animals per sex. The animals were weighed the day before dosing, as well as just prior to dosing.
After intravenous infusion of MP470.HCl at 5 mg/kg, average MP470 peak plasma concentrations of 454.3 ng/mL for males and 370.7 ng/mL for females were attained at 0.083 hours (5 minutes), the first sampling point postdose. After oral administration of non-micronized MP470.HCl, peak plasma concentrations of MP470 were attained at 0.5-12 hours for Group 2 (25 mg/kg) and 4-12 hours for Group 3 (100 mg/kg, suspension). The extent of systemic exposure of rats to MP470, characterized by AUCO-∞, was approximately 3.8-fold and 2.9-fold higher in females than in males for Groups 2 and 3, respectively. Average AUCO-∞ values were higher at 100 mg/kg than at 25 mg/kg and the increases in AUCO-∞ were greater than dose-proportional.
After oral administration of micronized MP470.HCl (Group 4), peak plasma concentrations of MP470 were attained at 4-12 hours. The extent of systemic exposure of rats to MP470, characterized by AUCO-∞, was approximately 3.4-fold higher in females than in males for Group 4. The extent of exposure of rats to MP470, characterized by AUCO-∞, was 1.7-fold (males) and 1.4-fold (females) higher for non-micronized MP470 HCl (Group 3) than for micronized MP470 HCl (Group 4).

S=C(NCc1ccc2c(c1)OCO2)N1CCN(c2ncnc3c2oc2ccccc23)CC1 [MP470, 4-[1]benzofuro[3,2-d]pyrimidin-4-yl-N-(1,3-benzodioxol-5-ylmethyl)piperazine-1-carbothioamide]
MTD at 0.5 h (in vivo [1]): 10 mg/kg
tumor growth rate ([2]; Day 5, 10 mg/kg IP qd5×2 wk (vehicle 19.5)): 1.4 mm3/d
tumor growth rate ([2]; Day 5, 20 mg/kg IP qd5×2 wk (vehicle 19.5)): −5.0 mm3/d
tumor growth rate ([2]; Day 14, 10 mg/kg IP (vehicle 16.4)): 4.3 mm3/d
tumor growth rate ([2]; Day 14, 20 mg/kg IP (vehicle 16.4)): 5.5 mm3/d
Outcome: tumor growth ([2]; HT-29 colon, IP 10, 20 mg/kg, (qd × 5) × 2 w, TV-13): tumor growth was slowed but not reversed
pKa (apparent ionization constant) ([3]; 30% (v/v) methanol): 6.81
pKa (apparent ionization constant) ([3]; 60% (v/v) methanol): 7.09
pKa (apparent ionization constant) ([3]; 90% (v/v) methanol): 7.10
apparent pKa ([3]; aqueous solution, extrapolated from pKa values in methanol-water): 6.7

Cl.S=C(NCc1ccc2c(c1)OCO2)N1CCN(c2ncnc3c2oc2ccccc23)CC1 [MP470.HCl, 4-[1]benzofuro[3,2-d]pyrimidin-4-yl-N-(1,3-benzodioxol-5-ylmethyl)piperazine-1-carbothioamide hydrochloride]
Solubility ([4]; Benzyl alcohol): 48000 µg/mL
Solubility ([4]; DMF): 9000 µg/mL
Solubility ([4]; DMSO): 17000 µg/mL
Solubility ([4]; Ethanol): 400 µg/mL
Solubility ([4]; Glycerol): 4000 µg/mL
Solubility ([4]; Methanol): 3000 µg/mL
Solubility ([4]; Propylene glycol): 4000 µg/mL
Solubility (mg/mL) ([4]; Water): < detectable limit by HPLC
half-life (in vivo [5]; both sexes, rats, daily oral dosing 28 days, read-out: half-lives): 2 to 8 h
severely toxic dose (in vivo [5]; female): > 600 mg/m2/d
severely toxic dose (STD) (in vivo [5]; female): higher than 100 mg/kg/d
severely toxic dose (in vivo [5]; male): > 1200 mg/m2/d
severely toxic dose (STD) (in vivo [5]; male): > 200 mg/kg/day
cardiotoxicity (histopathology) (in vivo [5]): no evidence of cardiotoxicity in either sex
Bioavailability (%) ([6]; female): 100.21%
AUC INF ([6]; female, iv, 5 mg/kg): 2530.9 ng·h/mL
t1/2 ([6]; female, iv, 5 mg/kg): 2.6 to 2.9 h
AUC INF ([6]; female, po, 25 mg/kg): 12681.6 ng·h/mL
t1/2 ([6]; female, po, 25 mg/kg): 4.0 to 17.4 h
Bioavailability (%) ([6]; male): 43.40%
AUC INF ([6]; male, iv, 5 mg/kg): 1546.3 ng·h/mL
t1/2 ([6]; male, iv, 5 mg/kg): 3.1 to 4.4 h
AUC INF ([6]; male, po, 25 mg/kg): 3355.1 ng·h/mL
t1/2 ([6]; male, po, 25 mg/kg): 2.8 to 4.2 h
